pKd: −log10 of the molar value.
What was measured:
[1] = molecular target: T1, Act d 8 (Actinidia deliciosa, UniProt D1YSM5); experiment: 1H-15N HSQC NMR titration (chemical shift perturbations); type: binding
T1 construct: gene ypr-10
T1 sequence (D1YSM5 1-157): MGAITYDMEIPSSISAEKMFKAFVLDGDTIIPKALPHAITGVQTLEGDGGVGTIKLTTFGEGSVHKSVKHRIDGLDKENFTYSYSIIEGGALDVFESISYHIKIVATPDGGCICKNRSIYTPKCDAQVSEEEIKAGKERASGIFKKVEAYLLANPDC

[2] = molecular target: T2, Act c 8 (Actinidia chinensis, UniProt D1YSM4); experiment: as above; type: binding
T2 construct: gene ypr-10
T2 sequence (D1YSM4 1-159): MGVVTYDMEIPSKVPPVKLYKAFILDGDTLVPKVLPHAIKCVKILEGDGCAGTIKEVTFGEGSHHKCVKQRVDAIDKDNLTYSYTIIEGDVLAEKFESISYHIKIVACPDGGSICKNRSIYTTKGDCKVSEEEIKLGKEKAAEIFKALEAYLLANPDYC

`Oc1cccc(O)c1O` [pyrogallol] showed a pKd [1] of 2.30 and a pKd [2] of 1.52.
